We go through 24 compounds from patent US20090105305A1, “Therapeutic Agents - 550” (AstraZeneca AB, priority 2006, published 2009).

The target in this experiment is T1, human Fatty Acid Synthase (Homo sapiens, UniProt P49327).
T1 construct: made in house
Briefly: Human FAS enzyme assay (decrease in NADPH fluorescence). Format: biochemical. As to conditions: for inhibition at 100 µM: % inhibition at a concentration of 100 micromolar; for IC50s in the range of about 0.001 μM to about 30 μM: compounds excluded from the claims by proviso. An excerpt: The compounds of the present invention are Fatty Acid Synthase inhibitors. […] Human and Rat FAS Enzyme Assay.
Fatty acid synthase is an enzyme complex that harbours seven enzymatic activities catalysing the reductive synthesis of long chain fatty acids from acetyl CoA and malonyl CoA to palmitate. When acetyl CoA and malonyl CoA are forming palmitate NADPH is consumed forming NADP. Since NADPH is fluorescent but not NADP the reaction can be measured by analysing the decrease in fluorescence.
Compounds were added to a black 384 well plate (Matrix) in a volume of 5 μl consisting of 20% DMSO and 80% Tris buffer pH 7.5, at a top concentration of 1 mM. NADPH, 30 μl of 166.6 μM, formulated in assay buffer (0.1M Tris ph7.5, 0.1 mM EDTA, 1 mM glutathione, 0.05% BSA), was then added to all of the wells of the plate. Fatty acid synthase Human or rat enzyme (0.4 μg, produced in house), dissolved in 20 mM Tris/HCl pH 7.5, 5 mM BOG, 1 mM TCEP, 10% glycerol, 1 mM EDTA, 150 mM NaCl, was then added to the plate in a volume of […]. Enzyme was added to all but the last two columns of the plate, to which, 10 μl of assay buffer was added (0.1M Tris ph7.5, 0.1 mM EDTA, 1 mM glutathione, 0.05% BSA) to provide a no enzyme assay control. Following a 15-minute incubation period, at room temperature, the plates were read on an Envision plate reader using 340 nm excitation and 460 nm emission filters. This served as a time zero background read. Substrates (an equal mix of both malonyl and acetyl CoA) were then added to the plates in a total volume of 5 μl. The concentrations of malonyl and acetyl CoA in the mixture were 500 μM and 150 μM respectively. Both were prepared as 10 mM stock solutions in distilled water and were subsequently diluted to working concentrations in assay buffer. Plates were then incubated for a further 60 minutes, at room temperature, before being read again on the Envision reader using the same parameters as previously used. The data was analysed by subtracting the background time zero data from that generated following the final 60 minute incubate and the percent inhibition compared to the maximum and minimum assay controls was determined. Sigmoid curves were fitted using Origin 7.5 Client software and IC50 values were determined.

T1 sequence (P49327 whole entry): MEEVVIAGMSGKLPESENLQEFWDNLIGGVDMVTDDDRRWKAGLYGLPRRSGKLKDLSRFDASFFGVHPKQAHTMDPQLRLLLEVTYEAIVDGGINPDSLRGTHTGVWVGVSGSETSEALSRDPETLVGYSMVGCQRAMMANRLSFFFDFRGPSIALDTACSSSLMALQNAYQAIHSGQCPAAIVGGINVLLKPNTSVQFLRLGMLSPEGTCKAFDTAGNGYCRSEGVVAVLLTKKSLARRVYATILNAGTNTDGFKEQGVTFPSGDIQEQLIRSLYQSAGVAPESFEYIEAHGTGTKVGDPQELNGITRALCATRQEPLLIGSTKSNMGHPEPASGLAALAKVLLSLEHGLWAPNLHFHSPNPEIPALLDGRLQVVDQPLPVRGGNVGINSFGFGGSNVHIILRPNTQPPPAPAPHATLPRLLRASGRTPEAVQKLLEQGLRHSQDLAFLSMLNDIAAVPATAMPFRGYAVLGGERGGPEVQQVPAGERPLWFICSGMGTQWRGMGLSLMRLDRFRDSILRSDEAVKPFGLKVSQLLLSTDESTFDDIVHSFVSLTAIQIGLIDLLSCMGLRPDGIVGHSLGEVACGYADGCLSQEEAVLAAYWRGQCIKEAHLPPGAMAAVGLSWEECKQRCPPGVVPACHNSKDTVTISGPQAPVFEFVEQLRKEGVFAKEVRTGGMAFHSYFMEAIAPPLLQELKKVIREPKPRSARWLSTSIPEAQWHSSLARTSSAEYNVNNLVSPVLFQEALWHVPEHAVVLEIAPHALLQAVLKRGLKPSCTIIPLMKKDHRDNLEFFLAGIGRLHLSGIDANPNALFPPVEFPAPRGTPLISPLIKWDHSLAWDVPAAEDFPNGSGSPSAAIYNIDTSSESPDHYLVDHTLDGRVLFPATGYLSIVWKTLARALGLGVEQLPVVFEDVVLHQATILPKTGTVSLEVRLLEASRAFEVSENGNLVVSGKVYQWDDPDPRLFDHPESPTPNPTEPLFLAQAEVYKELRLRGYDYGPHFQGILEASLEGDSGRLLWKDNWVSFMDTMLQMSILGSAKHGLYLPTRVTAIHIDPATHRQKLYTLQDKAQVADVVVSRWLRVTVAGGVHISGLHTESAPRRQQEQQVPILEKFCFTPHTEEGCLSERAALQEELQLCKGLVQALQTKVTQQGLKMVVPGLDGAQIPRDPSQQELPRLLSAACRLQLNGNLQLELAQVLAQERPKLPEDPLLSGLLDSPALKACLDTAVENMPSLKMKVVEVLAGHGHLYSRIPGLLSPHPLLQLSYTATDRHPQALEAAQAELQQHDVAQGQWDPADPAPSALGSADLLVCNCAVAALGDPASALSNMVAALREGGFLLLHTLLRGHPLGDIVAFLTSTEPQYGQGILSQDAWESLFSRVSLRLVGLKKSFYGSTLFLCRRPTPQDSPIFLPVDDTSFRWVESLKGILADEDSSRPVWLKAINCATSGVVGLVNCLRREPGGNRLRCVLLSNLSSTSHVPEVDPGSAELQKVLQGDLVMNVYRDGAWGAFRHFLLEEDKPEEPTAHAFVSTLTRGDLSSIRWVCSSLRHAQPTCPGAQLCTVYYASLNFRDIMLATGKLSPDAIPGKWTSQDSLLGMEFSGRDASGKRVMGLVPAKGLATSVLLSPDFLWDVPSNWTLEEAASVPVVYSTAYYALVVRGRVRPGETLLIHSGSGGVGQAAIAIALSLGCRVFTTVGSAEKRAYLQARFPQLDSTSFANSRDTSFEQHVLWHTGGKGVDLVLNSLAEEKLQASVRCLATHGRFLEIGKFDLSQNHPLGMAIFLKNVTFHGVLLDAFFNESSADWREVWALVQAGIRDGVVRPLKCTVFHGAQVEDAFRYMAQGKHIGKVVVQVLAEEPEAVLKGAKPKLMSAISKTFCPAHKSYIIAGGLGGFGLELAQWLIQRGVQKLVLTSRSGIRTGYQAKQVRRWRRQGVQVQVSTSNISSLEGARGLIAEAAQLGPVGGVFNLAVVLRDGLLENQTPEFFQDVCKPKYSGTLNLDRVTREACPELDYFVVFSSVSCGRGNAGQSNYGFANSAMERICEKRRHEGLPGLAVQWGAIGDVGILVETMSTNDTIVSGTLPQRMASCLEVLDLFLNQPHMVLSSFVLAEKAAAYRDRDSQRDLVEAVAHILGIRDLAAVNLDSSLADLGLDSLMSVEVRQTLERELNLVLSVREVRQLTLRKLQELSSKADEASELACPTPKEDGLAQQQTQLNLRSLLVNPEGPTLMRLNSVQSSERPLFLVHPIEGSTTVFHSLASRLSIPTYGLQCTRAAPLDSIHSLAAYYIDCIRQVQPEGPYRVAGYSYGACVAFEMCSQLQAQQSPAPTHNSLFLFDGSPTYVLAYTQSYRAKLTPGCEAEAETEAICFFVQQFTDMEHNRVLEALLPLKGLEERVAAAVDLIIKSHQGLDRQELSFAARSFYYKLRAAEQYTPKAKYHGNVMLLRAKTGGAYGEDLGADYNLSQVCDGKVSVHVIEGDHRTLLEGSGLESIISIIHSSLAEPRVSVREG

By inhibition is commonly meant the relative decrease from the control value, in per cent. For `Cc1ccc(C(=O)N2CCC(c3ccc(C#N)cc3)CC2)cc1NS(=O)(=O)CCN` [Example 72, 2-amino-N-[5-[4-(4-cyanophenyl)piperidine-1-carbonyl]-2-methyl-phenyl]ethanesulfonamide], the inhibition at 100 µM turned out to be 93%. On the same count and under the same terms, for `Cc1ccc(C(=O)N2CCC(c3ccc(C#N)cc3)CC2)cc1NS(=O)(=O)CCCNS(C)(=O)=O` [Example 132, N-[5-[4-(4-cyanophenyl)piperidine-1-carbonyl]-2-methyl-phenyl]-3-methanesulfonamido-propane-1-sulfonamide] the value was 88%; for `Cc1ccc(C(=O)N2CCC(c3ccc(Cl)cc3)CC2)cc1NS(C)(=O)=O` [Example 155, N-[5-[4-(4-chlorophenyl)piperidine-1-carbonyl]-2-methyl-phenyl]methanesulfonamide], 84%; for `Cc1ccc(NS(=O)(=O)c2ccc3c(c2)CC(=O)N3)cc1C(=O)N1CCC(c2ccc(C#N)cc2)CC1` [Example 53, N-[3-[4-(4-cyanophenyl)piperidine-1-carbonyl]-4-methyl-phenyl]-2-oxo-1,3-dihydroindole-5-sulfonamide], 84%. Still for that read-out and setting: the same measure for `Cc1ccc(C(=O)N2CCC(c3ccc(OCC#N)cc3)CC2)cc1NS(C)(=O)=O` [Example 181, N-[5-[4-[4-(cyanomethoxy)phenyl]piperidine-1-carbonyl]-2-methylphenyl]methanesulfonamide]: 100%; for `Cc1ccc(C(=O)N2CCC(c3ccc(C#N)cc3)CC2)cc1NS(=O)(=O)C1CCN(C(C)C)CC1` [Example 120, N-[5-[4-(4-cyanophenyl)piperidine-1-carbonyl]-2-methyl-phenyl]-1-propan-2-yl-piperidine-4-sulfonamide]: 94%. With `Cc1ccc(C(=O)N2CCC(c3cccc(Cl)c3)CC2)cc1NS(C)(=O)=O` [N-[5-[4-(3-chlorophenyl)piperidine-1-carbonyl]-2-methylphenyl]methanesulfonamide], the “IC50s in the range of about 0.001 μM to about 30 μM” value (shortened to “IC50s in the range”) is “do not have IC50s in the range of about 0.001 μM to about 30 μM”. Still for that read-out and setting: the same measure for `CS(=O)(=O)Nc1cc(C(=O)N2CCC(c3ccc(C#N)cc3)CC2)ccc1F` [N-[5-[4-(4-cyanophenyl)piperidine-1-carbonyl]-2-fluorophenyl]methanesulfonamide]: “do not have IC50s in the range of about 0.001 μM to about 30 μM”. In the case of `Cc1ccc(NS(=O)(=O)c2ccccc2)cc1C(=O)N1CCC(c2ccc(C#N)cc2)CC1` [Example 35, N-[3-[4-(4-cyanophenyl)piperidine-1-carbonyl]-4-methyl-phenyl]benzenesulfonamide], the inhibition at 100 µM is 89%. Regarding `Cc1ccc(C(=O)N2CCC(c3ccc(CNS(=O)(=O)N(C)C)cc3)CC2)cc1NS(C)(=O)=O` [Example 242, N-[5-[4-[4-[(dimethylsulfamoylamino)methyl]phenyl]piperidine-1-carbonyl]-2-methylphenyl]methanesulfonamide], the inhibition at 100 µM is 95.7%. Still for that read-out and setting: the same measure for `Cc1ccc(C(=O)N2CCC(c3ccc(C#N)cc3)CC2)cc1NS(=O)(=O)C1CC1` [Example 14, N-[5-[4-(4-cyanophenyl)piperidine-1-carbonyl]-2-methyl-phenyl]cyclopropanesulfonamide]: 89%; for `CNC(=O)c1ccc(C2CCN(C(=O)c3ccc(C)c(NS(C)(=O)=O)c3)CC2)cc1` [Example 156, 4-[1-(3-methanesulfonamido-4-methyl-benzoyl)-4-piperidyl]-N-methyl-benzamide]: 74%. With `C#Cc1cccc(C2CCN(C(=O)c3ccc(C)c(NS(C)(=O)=O)c3)CC2)c1` [N-[5-[4-(3-ethynylphenyl)piperidine-1-carbonyl]-2-methylphenyl]methanesulfonamide], the “IC50s in the range” value was “do not have IC50s in the range of about 0.001 μM to about 30 μM”. As to `Cc1ccc(C(=O)N2CCC(c3ccc(C#N)cc3)CC2)cc1NS(=O)(=O)C(C)(C)Cl` [Example 224, 2-chloro-N-[5-[4-(4-cyanophenyl)piperidine-1-carbonyl]-2-methylphenyl]propane-2-sulfonamide], the inhibition at 100 µM is 108%. Consider `Cc1ccc(C(=O)N2CCC(c3ccc(CC(=O)O)cc3)CC2)cc1NS(=O)(=O)C1CCCCC1` [2-[4-[1-[3-(cyclohexylsulfonylamino)-4-methylbenzoyl]piperidin-4-yl]phenyl]acetic acid], for which the “IC50s in the range” value is reported as “do not have IC50s in the range of about 0.001 μM to about 30 μM”. With `CCCC(C)S(=O)(=O)Nc1ccc(C)c(C(=O)N2CCC(c3ccc(C#N)cc3)CC2)c1` (stereo not drawn) [Example 59, N-[3-[4-(4-cyanophenyl)piperidine-1-carbonyl]-4-methyl-phenyl]pentane-2-sulfonamide], the inhibition at 100 µM stood at 89%.

As to `CNS(=O)(=O)c1ccc(C2CCN(C(=O)c3ccc(C)c(NS(C)(=O)=O)c3)CC2)cc1` [Example 183, 4-[1-(3-methanesulfonamido-4-methylbenzoyl)piperidin-4-yl]-N-methylbenzenesulfonamide], the inhibition at 100 µM was determined as 90%.

With `CCNC(=O)NCc1ccc(C2CCN(C(=O)c3ccc(C)c(NS(C)(=O)=O)c3)CC2)cc1` [Example 234, 1-ethyl-3-[[4-[1-(3-methanesulfonamido-4-methylbenzoyl)piperidin-4-yl]phenyl]methyl]urea], the inhibition at 100 µM amounted to 78.3%. Regarding `COCCCS(=O)(=O)Nc1cc(C(=O)N2CCC(c3ccc(C#N)cc3)CC2)ccc1C` [Example 110, N-[5-[4-(4-cyanophenyl)piperidine-1-carbonyl]-2-methyl-phenyl]-3-methoxy-propane-1-sulfonamide], the inhibition at 100 µM turned out to be 86%. For `CNCCCS(=O)(=O)Nc1cc(C(=O)N2CCC(c3ccc(C#N)cc3)CC2)ccc1C` [Example 75, N-[5-[4-(4-cyanophenyl)piperidine-1-carbonyl]-2-methyl-phenyl]-3-methylamino-propane-1-sulfonamide], the inhibition at 100 µM is 93%. On the same count and under the same terms, the same measure for `Cc1ccc(C(=O)N2CCC(c3ccc(CNS(=O)(=O)CC(C)C)cc3)CC2)cc1NS(C)(=O)=O` [Example 238, N-[[4-[1-(3-methanesulfonamido-4-methylbenzoyl)piperidin-4-yl]phenyl]methyl]-2-methylpropane-1-sulfonamide]: 81.3%; for `CCC(C)S(=O)(=O)Nc1ccc(C)c(C(=O)N2CCC(c3ccc(C#N)cc3)CC2)c1` (racemic) [Example 44, (RS) N-[3-[4-(4-cyanophenyl)piperidine-1-carbonyl]-4-methyl-phenyl]butane-2-sulfonamide]: 89%. On the same count and under the same terms, for `Cc1ccc(C(=O)N2CCC(c3ccc(C#N)cc3)CC2)cc1NS(=O)(=O)C1CCN(S(C)(=O)=O)C1` (stereo not drawn) [Example 154, N-[5-[4-(4-cyanophenyl)piperidine-1-carbonyl]-2-methyl-phenyl]-1-methylsulfonyl-pyrrolidine-3-sulfonamide] the value was 99%. The same measure, in the same setting: for `COc1ccc(NS(=O)(=O)Cc2ccccc2)cc1C(=O)N1CCC(c2ccc(C#N)cc2)CC1` [Example 31, N-[3-[4-(4-cyanophenyl)piperidine-1-carbonyl]-4-methoxy-phenyl]-1-phenyl-methanesulfonamide] the value was 83%.
